Test results as given in patent publication US7947854B2, “Bis-cationic compounds and use thereof” (The University of Sydney, priority 2003, dated 2011).
Read-outs that look alike come from different tables or passages of the source.

Columns and labels:
[1] = system: secreted phospholipase B (LPL/LPTA activities); test: Radiometric assay, secreted LPL and LPTA activities (Lyso assay); type: biochemical, Cryptococcus neoformans H99
Experimental: (§1) Fungal isolates and media. […] Isolate H99 was kindly supplied by Dr. Gary Cox (Duke University Medical Center, Durham, N.C., USA), and subcultured onto Sabouraud dextrose agar (SDA) at 30° C.
(§2) Preparation of supernatants containing secreted phospholipase activities. Isolate H99 was grown to confluence on SDA in 16 cm diameter Petri dishes for 72 h at 30° C. in air. Cells scraped from 10-20 dishes were washed sequentially with isotonic saline and imidazole buffer (10 mM imidazole, 2 mM CaCl2, 2 mM Mg Cl2, 56 mM D-Glucose, made up in isotonic saline, pH 5.5), resuspended in a volume of this buffer of about 10% of the cell volume, and incubated for 24 h at 37° C. The cell-free supernatant was separated by centrifugation as previously described and stored at −70° C.
Secreted LPL and LPTA activities were measured simultaneously in a reaction mixture containing 1-[^14C]palmitoyl lyso-PC (25,000 dpm) and carrier lyso-PC (final concentration 200 μM) in assay buffer. The reaction time was […] with 1 μg of total protein and LPL activity was measured by the rate of loss of 1-[^14C]palmitoyl lyso-PC with release of radiolabelled fatty acids. LPTA activity was estimated from the rate of formation of radiolabelled PC.
(§3) All reactions were terminated by adding 0.5 mL of chloroform:methanol (2:1 v/v). The reaction products were extracted by the method as disclosed in Bligh, E. C. and W. J. Dyer. 1959 ‘A rapid method of total lipid extraction and purification.’ Can. J. Biochem. Physiol. 37:911-917, separated by TLC and quantified as previously described. In the case of PLC activity, the TLC plates were developed in petroleum ether (BP 60-80° C.): diethyl ether: acetic acid (90:15:1, v/v/v) instead of chloroform:methanol:water (65:25:4, v/v/v).
(§4) Preparation of inhibitors and use in assays. The following compounds were tested (for structures, see FIG. 2): compound 1, 1,12-bis(tributylphosphonium)dodecane dibromide (Fluka AG, Buchs, Switzerland); compound 2, 1,10-bis(tributylammonium)-decane dibromide; compound 3, 1,12-bis(tributylammonium)do-decane dibromide (both synthesised in-house); compound 4, 1,10-bis(trimethylammonium)decane dibromide [“decamethonium”] (Sigma, St. Louis Mo., USA). All compounds were prepared as stock solutions of 700 μM in assay buffer containing 5 mM EDTA, which was then diluted serially with buffer to obtain solutions of 70, 7, 0.7 and 0.07 μM. In each assay, 45 μL of these solutions was used, and the final volume of 125 μL was made up of substrate, enzyme and buffer. The radiometric assay was carried out as above. Inhibition was calculated as the percent of substrates (DPPC or Lyso-PC) remaining in the case of PLB and LPL activities, or of DPPC produced, in the case of the LPTA activity. The amounts converted, or produced, in the inhibitor-free control were normalised to 100%, and the inhibition calculated against it. All assays were done in triplicate.
(§5) Under these conditions only PLB, LPL and LPTA activities (both secreted and cell-associated) were measured. Initially, compounds deemed to be potential inhibitors were assayed at 25 and 250 μM. Those showing some inhibition were then also assayed at 2.5 and 0.25 μM.

[2] = system: secreted phospholipase B (PLB activity); test: Radiometric assay, secreted PLB activity; type: biochemical, Cryptococcus neoformans H99
Experimental: as §1, §2
Radiometric assay method for phospholipases. Enzyme activities were measured as described previously in a final volume of 125 μL at 37° C. For the determination of secreted PLB activity, carrier dipalmitoyl phosphatidylcholine (DPPC, final concentration 800 μM) and 1,2-di[1-^14C] palmitoyl phosphatidylcholine (20,000 dpm) were dried under nitrogen and suspended in 125 mM imidazole acetate buffer (assay buffer, pH 4.0) by sonication using a Branson 450 sonifier. The reaction time was 22 min, using 1 μg total protein and PLB activity was determined by the rate of decrease of the radiolabelled PC substrate, with appearance of the label in free fatty acid. This assay also simultaneously allows for the determination of phospholipase A, C and D activities. These activities were measured by the appearance of radiolabel from PC in Lyso PC, diacylglycerol and phosphatidic acid, respectively.
as §3, §4, §5

erythrocyte = type: cell-based; details: 37° C., 1 h
Experimental: Human blood was collected in 10 mL Vacutainer tubes containing potassium-EDTA as anticoagulant. The blood from each vacutainer was transferred to a 50 mL centrifuge tube and the cells washed three times with calcium- and magnesium-free phosphate buffered saline (PBS) (Gibco) by centrifugation at 2000×g for 15 min. The third supernatant was clear and colourless. Cells were stored in PBS for up to two weeks. The cell suspension in PBS (0.5 mL) was mixed with a stock solution of test substance (0.5 mL) at the appropriate concentration (final erythrocyte concentration of approx. 0.5×10^9 per mL). The mixtures were incubated at 37° C. for 1 h with gentle shaking, then centrifuged at 2000×g for 10 min. The supernatant was diluted 10-fold with PBS and the optical density measured at 540 nm. The values for 0% and 100% lysis were determined by incubating cells with PBS or 0.1% Triton X-100 (in water), respectively. Assays were carried out in triplicate.

[3] = system: Candida albicans ATCC 10231; test: Antifungal susceptibility testing, microdilution MIC; type: cell-based; details: Candida albicans
Experimental: (§6) Antifungal susceptibility testing. The antifingal activity of the compounds was measured by a standard microdilution method. […] The fungal strains tested included Cryptococcus neoformans H99, Cryptococcus neoformans ATCC 90112 and Candida albicans ATCC 10231. All tests were performed in duplicate.
(§7) A range of cationic compounds were assayed for antifungal activity in a standardised serial dilution sensitivity test against C. neoformans ([…]) and C. Albicans (ATCC 10231).

[4] = system: Cryptococcus neoformans ATCC 90112; test: as above; type: cell-based; details: Cryptococcus neoformans
Experimental: as §6, §7

[5] = ATCC10231, Table 7, read-out: MIC (μM) C. alb. (10231)
[6] = ATCC90112, Table 7, read-out: MIC (μM) Crypto. (ATCC 90112)
[7] = ATCC10231, read-out: MIC (μM) C. alb. (10231)
[8] = ATCC90112, read-out: MIC (μM) Crypto. (ATCC 90112)

| Compound | Lyso assay (% inhibition) LPL ([1]; 0.25 μM) | Lyso assay (% inhibition) LPTA ([1]; 0.25 μM) | Lyso assay (% inhibition) LPL ([1]; 2.5 μM) | Lyso assay (% inhibition) LPTA ([1]; 2.5 μM) | Lyso assay (% inhibition) LPL ([1]; 25 μM) | Lyso assay (% inhibition) LPTA ([1]; 25 μM) | Lyso assay (% inhibition) LPL ([1]; 250 μM) | Lyso assay (% inhibition) LPTA ([1]; 250 μM) | PLB assay (% inhibition) ([2]; 0.25 μM) | PLB assay (% inhibition) ([2]; 2.5 μM) | PLB assay (% inhibition) ([2]; 25 μM) | PLB assay (% inhibition) ([2]; 250 μM) | Haemolytic assay (%) (erythrocyte; 3.5 μM) | Haemolytic assay (%) (erythrocyte; 35 μM) | Haemolytic assay (%) (erythrocyte; 88 μM) | Haemolytic assay (%) (erythrocyte; 175 μM) | Haemolytic assay (%) (erythrocyte; 350 μM) | MIC [3, 5] | MIC [4, 6] | MIC [3, 7] | other results |
| --- | --- | --- | --- | --- | --- | --- | --- | --- | --- | --- | --- | --- | --- | --- | --- | --- | --- | --- | --- | --- | --- |
| CCCCCCCCCCCCCCCC[P+](CCCC)(CCCC)CCCC | 0% | 0% | 0% | 0% | 15% | 5% | 98% | 95% | 0% | 15% | 37% | 92% | 2.5% | 4% | 7% | 32% | 100% | 2.2 µM | ≤ 0.6 µM | – | – |
| C[N+](C)(C)CCCCCCCCCCCC[N+](C)(C)C [1,12-Bis-(trimethylammonium)dodecane dibromide] | – | – | – | – | 250 μM = 0% 25 μM = 0% 2.5 μM = n.d. 0.25 μM = n.d. | 4% | 250 μM = 0% 25 μM = 0% 2.5 μM = n.d. 0.25 μM = n.d. | 5% | – | – | 2% | 3% | 350 μM = 0% 175 μM = 0% 88 μM = 0% 35 μM = 0% 3.5 μM = 0% | 350 μM = 0% 175 μM = 0% 88 μM = 0% 35 μM = 0% 3.5 μM = 0% | 350 μM = 0% 175 μM = 0% 88 μM = 0% 35 μM = 0% 3.5 μM = 0% | 350 μM = 0% 175 μM = 0% 88 μM = 0% 35 μM = 0% 3.5 μM = 0% | 350 μM = 0% 175 μM = 0% 88 μM = 0% 35 μM = 0% 3.5 μM = 0% | – | – | 175 µM | MIC [4, 8]: 175 µM |
| CCC[N+](CCC)(CCC)CCCCCCCCCCCC[N+](CCC)(CCC)CCC [1,12-Bis-(tripropylammonium)dodecane dibromide] | 0% | 0% | 0% | 0% | 5% | 20% | 8% | 10% | 5% | 6% | 71% | 80% | – | – | – | – | – | 10 µM | 5.5 µM | – | PLB assay (% inhibition) ([2]; 6.7 μM): 42%; PLB assay (% inhibition) ([2]; 12.5 μM): 68% |
| CCCC[N+]1(CCCCCCCCCCCC[N+]2(CCCC)CCCC2)CCCC1 [C12-bis-N-butyl-pyro. dibromide, 1,12-Bis-(N-butylpyrrolidinium)dodecane dibromide] | – | – | – | – | – | – | – | – | – | – | – | – | 350 μM = 0% 175 μM = 0% 88 μM = 0% 35 μM = 0% 3.5 μM = 0% | 350 μM = 0% 175 μM = 0% 88 μM = 0% 35 μM = 0% 3.5 μM = 0% | 350 μM = 0% 175 μM = 0% 88 μM = 0% 35 μM = 0% 3.5 μM = 0% | 350 μM = 0% 175 μM = 0% 88 μM = 0% 35 μM = 0% 3.5 μM = 0% | 350 μM = 0% 175 μM = 0% 88 μM = 0% 35 μM = 0% 3.5 μM = 0% | 88 µM | 88 µM | – | – |
| C[N+]1(CCCCCCCCCCCC[N+]2(C)CCCC2)CCCC1 [C12-bis-N-methyl-pyro. dibromide, 1,12-Bis-(1-methylpyrrolidinium)dodecane dibromide] | – | – | – | – | 250 μM = 0% 25 μM = 0% 2.5 μM = n.d. 0.25 μM = n.d. | 250 μM = 0% 25 μM = 0% 2.5 μM = n.d. 0.25 μM = n.d. | 250 μM = 0% 25 μM = 0% 2.5 μM = n.d. 0.25 μM = n.d. | 250 μM = 0% 25 μM = 0% 2.5 μM = n.d. 0.25 μM = n.d. | – | – | 0% | 9% | – | – | – | – | – | – | – | 175 µM | MIC [4, 8]: 175 µM |
